Source: ChEMBL document CHEMBL3400097, “Effect of arginine methylation on the RNA recognition and cellular uptake of Tat-derived peptides” (Bioorg Med Chem, 2015)

tested on: Jurkat; test: Cytotoxicity against human Jurkat cells assessed as cell viability at 120 uM after 4 hrs by WST-1 assay; format: cell-based; conditions: not given; call rule not given here

Row | SMILES | Activity
1 | C/N=C(\NC)NCCC[C@H](NC(=O)[C@H](CCCNC(=N)N)NC(=O)[C@H](CCC(N)=O)NC(=O)[C@H](CCCNC(=N)N)NC(=O)[C@H](CCCNC(=N)N)NC(=O)[C@H](CCCCN)NC(=O)[C@H](CCCCN)NC(=O)[C@H](CCCNC(=N)N)NC(=O)CNC(=O)[C@H](Cc1ccc(O)cc1)NC(C)=O)C(=O)N[C@@H](CCCNC(=N)N)C(N)=O | Non-toxic
2 | C/N=C(\NC)NCCC[C@H](NC(=O)[C@H](CCCNC(=N)N)NC(=O)[C@H](CCCNC(=N)N)NC(=O)[C@H](CCC(N)=O)NC(=O)[C@H](CCCNC(=N)N)NC(=O)[C@H](CCCNC(=N)N)NC(=O)[C@H](CCCCN)NC(=O)[C@H](CCCCN)NC(=O)[C@H](CCCNC(=N)N)NC(=O)CNC(=O)[C@H](Cc1ccc(O)cc1)NC(C)=O)C(N)=O | Non-toxic

tested on: Nucleic Acid; test: Binding affinity to HIV TAR RNA by electrophoretic mobility shift assay in presence of Escherichia coli tRNA; format: nucleic-acid assay, Human immunodeficiency virus; conditions: not given

Row | SMILES | Kd [nM]
3 | C/N=C(\NC)NCCC[C@H](NC(=O)[C@H](CCCNC(=N)N)NC(=O)[C@H](CCC(N)=O)NC(=O)[C@H](CCCNC(=N)N)NC(=O)[C@H](CCCNC(=N)N)NC(=O)[C@H](CCCCN)NC(=O)[C@H](CCCCN)NC(=O)[C@H](CCCNC(=N)N)NC(=O)CNC(=O)[C@H](Cc1ccc(O)cc1)NC(C)=O)C(=O)N[C@@H](CCCNC(=N)N)C(N)=O | 317
4 | C/N=C(\NC)NCCC[C@H](NC(=O)[C@H](CCCNC(=N)N)NC(=O)[C@H](CCCNC(=N)N)NC(=O)[C@H](CCC(N)=O)NC(=O)[C@H](CCCNC(=N)N)NC(=O)[C@H](CCCNC(=N)N)NC(=O)[C@H](CCCCN)NC(=O)[C@H](CCCCN)NC(=O)[C@H](CCCNC(=N)N)NC(=O)CNC(=O)[C@H](Cc1ccc(O)cc1)NC(C)=O)C(N)=O | 262

tested on: Jurkat; test: Cellular uptake in human Jurkat cells at 7 to 120 uM after 15 mins by 6-carboxyfluorescein staining-based flow cytometry; format: ADME, cell-based; conditions: 0.25 h

Row | SMILES | Drug uptake
5 | N=C(N)NCCC[C@H](NC(=O)[C@H](CCCNC(=N)N)NC(=O)[C@H](CCCNC(=N)N)NC(=O)[C@H](CCC(N)=O)NC(=O)[C@H](CCCNC(=N)N)NC(=O)[C@H](CCCNC(=N)N)NC(=O)[C@H](CCCCN)NC(=O)[C@H](CCCCN)NC(=O)[C@H](CCCNC(=N)N)NC(=O)CNC(=O)[C@H](Cc1ccc(O)cc1)NC(=O)CCNC(=O)c1ccc2c(c1)C1(OC2=O)c2ccc(O)cc2Oc2cc(O)ccc21)C(N)=O | Active
6 | CNC(=N)NCCC[C@H](NC(=O)CNC(=O)[C@H](Cc1ccc(O)cc1)NC(=O)CCNC(=O)c1ccc2c(c1)C1(OC2=O)c2ccc(O)cc2Oc2cc(O)ccc21)C(=O)N[C@@H](CCCCN)C(=O)N[C@@H](CCCCN)C(=O)N[C@@H](CCCNC(=N)N)C(=O)N[C@@H](CCCNC(=N)N)C(=O)N[C@@H](CCC(N)=O)C(=O)N[C@@H](CCCNC(=N)N)C(=O)N[C@@H](CCCNC(=N)N)C(=O)N[C@@H](CCCNC(=N)N)C(N)=O | Active
7 | CNC(=N)NCCC[C@H](NC(=O)[C@H](CCCCN)NC(=O)[C@H](CCCCN)NC(=O)[C@H](CCCNC(=N)N)NC(=O)CNC(=O)[C@H](Cc1ccc(O)cc1)NC(=O)CCNC(=O)c1ccc2c(c1)C1(OC2=O)c2ccc(O)cc2Oc2cc(O)ccc21)C(=O)N[C@@H](CCCNC(=N)N)C(=O)N[C@@H](CCC(N)=O)C(=O)N[C@@H](CCCNC(=N)N)C(=O)N[C@@H](CCCNC(=N)N)C(=O)N[C@@H](CCCNC(=N)N)C(N)=O | Active
8 | CNC(=N)NCCC[C@H](NC(=O)[C@H](CCCNC(=N)N)NC(=O)[C@H](CCCCN)NC(=O)[C@H](CCCCN)NC(=O)[C@H](CCCNC(=N)N)NC(=O)CNC(=O)[C@H](Cc1ccc(O)cc1)NC(=O)CCNC(=O)c1ccc2c(c1)C1(OC2=O)c2ccc(O)cc2Oc2cc(O)ccc21)C(=O)N[C@@H](CCC(N)=O)C(=O)N[C@@H](CCCNC(=N)N)C(=O)N[C@@H](CCCNC(=N)N)C(=O)N[C@@H](CCCNC(=N)N)C(N)=O | Active
9 | CNC(=N)NCCC[C@H](NC(=O)[C@H](CCC(N)=O)NC(=O)[C@H](CCCNC(=N)N)NC(=O)[C@H](CCCNC(=N)N)NC(=O)[C@H](CCCCN)NC(=O)[C@H](CCCCN)NC(=O)[C@H](CCCNC(=N)N)NC(=O)CNC(=O)[C@H](Cc1ccc(O)cc1)NC(=O)CCNC(=O)c1ccc2c(c1)C1(OC2=O)c2ccc(O)cc2Oc2cc(O)ccc21)C(=O)N[C@@H](CCCNC(=N)N)C(=O)N[C@@H](CCCNC(=N)N)C(N)=O | Active
10 | CNC(=N)NCCC[C@H](NC(=O)[C@H](CCCNC(=N)N)NC(=O)[C@H](CCC(N)=O)NC(=O)[C@H](CCCNC(=N)N)NC(=O)[C@H](CCCNC(=N)N)NC(=O)[C@H](CCCCN)NC(=O)[C@H](CCCCN)NC(=O)[C@H](CCCNC(=N)N)NC(=O)CNC(=O)[C@H](Cc1ccc(O)cc1)NC(=O)CCNC(=O)c1ccc2c(c1)C1(OC2=O)c2ccc(O)cc2Oc2cc(O)ccc21)C(=O)N[C@@H](CCCNC(=N)N)C(N)=O | Active
11 | CNC(=N)NCCC[C@H](NC(=O)[C@H](CCCNC(=N)N)NC(=O)[C@H](CCCNC(=N)N)NC(=O)[C@H](CCC(N)=O)NC(=O)[C@H](CCCNC(=N)N)NC(=O)[C@H](CCCNC(=N)N)NC(=O)[C@H](CCCCN)NC(=O)[C@H](CCCCN)NC(=O)[C@H](CCCNC(=N)N)NC(=O)CNC(=O)[C@H](Cc1ccc(O)cc1)NC(=O)CCNC(=O)c1ccc2c(c1)C1(OC2=O)c2ccc(O)cc2Oc2cc(O)ccc21)C(N)=O | Active
12 | CN(C)C(=N)NCCC[C@H](NC(=O)CNC(=O)[C@H](Cc1ccc(O)cc1)NC(=O)CCNC(=O)c1ccc2c(c1)C1(OC2=O)c2ccc(O)cc2Oc2cc(O)ccc21)C(=O)N[C@@H](CCCCN)C(=O)N[C@@H](CCCCN)C(=O)N[C@@H](CCCNC(=N)N)C(=O)N[C@@H](CCCNC(=N)N)C(=O)N[C@@H](CCC(N)=O)C(=O)N[C@@H](CCCNC(=N)N)C(=O)N[C@@H](CCCNC(=N)N)C(=O)N[C@@H](CCCNC(=N)N)C(N)=O | Active
13 | CN(C)C(=N)NCCC[C@H](NC(=O)[C@H](CCCCN)NC(=O)[C@H](CCCCN)NC(=O)[C@H](CCCNC(=N)N)NC(=O)CNC(=O)[C@H](Cc1ccc(O)cc1)NC(=O)CCNC(=O)c1ccc2c(c1)C1(OC2=O)c2ccc(O)cc2Oc2cc(O)ccc21)C(=O)N[C@@H](CCCNC(=N)N)C(=O)N[C@@H](CCC(N)=O)C(=O)N[C@@H](CCCNC(=N)N)C(=O)N[C@@H](CCCNC(=N)N)C(=O)N[C@@H](CCCNC(=N)N)C(N)=O | Active
14 | CN(C)C(=N)NCCC[C@H](NC(=O)[C@H](CCCNC(=N)N)NC(=O)[C@H](CCCCN)NC(=O)[C@H](CCCCN)NC(=O)[C@H](CCCNC(=N)N)NC(=O)CNC(=O)[C@H](Cc1ccc(O)cc1)NC(=O)CCNC(=O)c1ccc2c(c1)C1(OC2=O)c2ccc(O)cc2Oc2cc(O)ccc21)C(=O)N[C@@H](CCC(N)=O)C(=O)N[C@@H](CCCNC(=N)N)C(=O)N[C@@H](CCCNC(=N)N)C(=O)N[C@@H](CCCNC(=N)N)C(N)=O | Active
15 | CN(C)C(=N)NCCC[C@H](NC(=O)[C@H](CCC(N)=O)NC(=O)[C@H](CCCNC(=N)N)NC(=O)[C@H](CCCNC(=N)N)NC(=O)[C@H](CCCCN)NC(=O)[C@H](CCCCN)NC(=O)[C@H](CCCNC(=N)N)NC(=O)CNC(=O)[C@H](Cc1ccc(O)cc1)NC(=O)CCNC(=O)c1ccc2c(c1)C1(OC2=O)c2ccc(O)cc2Oc2cc(O)ccc21)C(=O)N[C@@H](CCCNC(=N)N)C(=O)N[C@@H](CCCNC(=N)N)C(N)=O | Active
16 | CN(C)C(=N)NCCC[C@H](NC(=O)[C@H](CCCNC(=N)N)NC(=O)[C@H](CCC(N)=O)NC(=O)[C@H](CCCNC(=N)N)NC(=O)[C@H](CCCNC(=N)N)NC(=O)[C@H](CCCCN)NC(=O)[C@H](CCCCN)NC(=O)[C@H](CCCNC(=N)N)NC(=O)CNC(=O)[C@H](Cc1ccc(O)cc1)NC(=O)CCNC(=O)c1ccc2c(c1)C1(OC2=O)c2ccc(O)cc2Oc2cc(O)ccc21)C(=O)N[C@@H](CCCNC(=N)N)C(N)=O | Active
17 | CN(C)C(=N)NCCC[C@H](NC(=O)[C@H](CCCNC(=N)N)NC(=O)[C@H](CCCNC(=N)N)NC(=O)[C@H](CCC(N)=O)NC(=O)[C@H](CCCNC(=N)N)NC(=O)[C@H](CCCNC(=N)N)NC(=O)[C@H](CCCCN)NC(=O)[C@H](CCCCN)NC(=O)[C@H](CCCNC(=N)N)NC(=O)CNC(=O)[C@H](Cc1ccc(O)cc1)NC(=O)CCNC(=O)c1ccc2c(c1)C1(OC2=O)c2ccc(O)cc2Oc2cc(O)ccc21)C(N)=O | Active
18 | C/N=C(\NC)NCCC[C@H](NC(=O)CNC(=O)[C@H](Cc1ccc(O)cc1)NC(=O)CCNC(=O)c1ccc2c(c1)C1(OC2=O)c2ccc(O)cc2Oc2cc(O)ccc21)C(=O)N[C@@H](CCCCN)C(=O)N[C@@H](CCCCN)C(=O)N[C@@H](CCCNC(=N)N)C(=O)N[C@@H](CCCNC(=N)N)C(=O)N[C@@H](CCC(N)=O)C(=O)N[C@@H](CCCNC(=N)N)C(=O)N[C@@H](CCCNC(=N)N)C(=O)N[C@@H](CCCNC(=N)N)C(N)=O | Active
19 | C/N=C(\NC)NCCC[C@H](NC(=O)[C@H](CCCCN)NC(=O)[C@H](CCCCN)NC(=O)[C@H](CCCNC(=N)N)NC(=O)CNC(=O)[C@H](Cc1ccc(O)cc1)NC(=O)CCNC(=O)c1ccc2c(c1)C1(OC2=O)c2ccc(O)cc2Oc2cc(O)ccc21)C(=O)N[C@@H](CCCNC(=N)N)C(=O)N[C@@H](CCC(N)=O)C(=O)N[C@@H](CCCNC(=N)N)C(=O)N[C@@H](CCCNC(=N)N)C(=O)N[C@@H](CCCNC(=N)N)C(N)=O | Active
20 | C/N=C(\NC)NCCC[C@H](NC(=O)[C@H](CCCNC(=N)N)NC(=O)[C@H](CCCCN)NC(=O)[C@H](CCCCN)NC(=O)[C@H](CCCNC(=N)N)NC(=O)CNC(=O)[C@H](Cc1ccc(O)cc1)NC(=O)CCNC(=O)c1ccc2c(c1)C1(OC2=O)c2ccc(O)cc2Oc2cc(O)ccc21)C(=O)N[C@@H](CCC(N)=O)C(=O)N[C@@H](CCCNC(=N)N)C(=O)N[C@@H](CCCNC(=N)N)C(=O)N[C@@H](CCCNC(=N)N)C(N)=O | Active
21 | C/N=C(\NC)NCCC[C@H](NC(=O)[C@H](CCC(N)=O)NC(=O)[C@H](CCCNC(=N)N)NC(=O)[C@H](CCCNC(=N)N)NC(=O)[C@H](CCCCN)NC(=O)[C@H](CCCCN)NC(=O)[C@H](CCCNC(=N)N)NC(=O)CNC(=O)[C@H](Cc1ccc(O)cc1)NC(=O)CCNC(=O)c1ccc2c(c1)C1(OC2=O)c2ccc(O)cc2Oc2cc(O)ccc21)C(=O)N[C@@H](CCCNC(=N)N)C(=O)N[C@@H](CCCNC(=N)N)C(N)=O | Active
22 | C/N=C(\NC)NCCC[C@H](NC(=O)[C@H](CCCNC(=N)N)NC(=O)[C@H](CCC(N)=O)NC(=O)[C@H](CCCNC(=N)N)NC(=O)[C@H](CCCNC(=N)N)NC(=O)[C@H](CCCCN)NC(=O)[C@H](CCCCN)NC(=O)[C@H](CCCNC(=N)N)NC(=O)CNC(=O)[C@H](Cc1ccc(O)cc1)NC(=O)CCNC(=O)c1ccc2c(c1)C1(OC2=O)c2ccc(O)cc2Oc2cc(O)ccc21)C(=O)N[C@@H](CCCNC(=N)N)C(N)=O | Active
23 | C/N=C(\NC)NCCC[C@H](NC(=O)[C@H](CCCNC(=N)N)NC(=O)[C@H](CCCNC(=N)N)NC(=O)[C@H](CCC(N)=O)NC(=O)[C@H](CCCNC(=N)N)NC(=O)[C@H](CCCNC(=N)N)NC(=O)[C@H](CCCCN)NC(=O)[C@H](CCCCN)NC(=O)[C@H](CCCNC(=N)N)NC(=O)CNC(=O)[C@H](Cc1ccc(O)cc1)NC(=O)CCNC(=O)c1ccc2c(c1)C1(OC2=O)c2ccc(O)cc2Oc2cc(O)ccc21)C(N)=O | Active
